Article PMC12586182 (Frontiers in Oncology, 2025)

How the values were obtained:
Experiment in all cases: Kinase panel profiling at 1 µmol/L (mobility shift assay, Carna)
Type in all cases: biochemical
Conditions in all cases: 1 µmol/L of BTK inhibitor
[1] = target: T1, ALK (Homo sapiens, UniProt Q9UM73)
T1 construct: purchased Carna Biosciences

[2] = target: T2, CK1γ1 (Homo sapiens, UniProt Q9HCP0)
T2 construct: purchased Carna Biosciences

[3] = target: T3, SRPK2 (Homo sapiens, UniProt P78362)
T3 construct: purchased Carna Biosciences
T3 sequence (P78362 whole entry): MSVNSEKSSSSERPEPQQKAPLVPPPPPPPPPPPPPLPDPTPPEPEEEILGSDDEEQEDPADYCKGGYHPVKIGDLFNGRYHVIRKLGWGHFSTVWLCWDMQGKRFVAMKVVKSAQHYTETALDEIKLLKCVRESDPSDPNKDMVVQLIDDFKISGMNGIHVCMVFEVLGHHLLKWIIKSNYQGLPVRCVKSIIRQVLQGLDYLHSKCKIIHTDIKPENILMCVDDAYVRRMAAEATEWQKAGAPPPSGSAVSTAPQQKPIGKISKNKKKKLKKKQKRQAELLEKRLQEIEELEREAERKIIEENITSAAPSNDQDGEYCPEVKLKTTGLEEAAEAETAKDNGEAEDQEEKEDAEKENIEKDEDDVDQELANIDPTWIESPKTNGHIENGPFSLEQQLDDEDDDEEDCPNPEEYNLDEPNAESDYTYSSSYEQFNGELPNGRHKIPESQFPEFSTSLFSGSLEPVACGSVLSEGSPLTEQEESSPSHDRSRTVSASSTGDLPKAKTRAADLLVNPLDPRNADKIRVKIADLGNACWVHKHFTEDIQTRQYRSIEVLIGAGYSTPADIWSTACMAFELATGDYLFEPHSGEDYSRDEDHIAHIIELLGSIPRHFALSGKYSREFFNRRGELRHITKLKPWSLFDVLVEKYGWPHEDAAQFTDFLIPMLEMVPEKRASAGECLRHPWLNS

[4] = target: T4, PKCζ (Homo sapiens, UniProt Q05513)
T4 construct: purchased Carna Biosciences
T4 sequence (Q05513 1-592): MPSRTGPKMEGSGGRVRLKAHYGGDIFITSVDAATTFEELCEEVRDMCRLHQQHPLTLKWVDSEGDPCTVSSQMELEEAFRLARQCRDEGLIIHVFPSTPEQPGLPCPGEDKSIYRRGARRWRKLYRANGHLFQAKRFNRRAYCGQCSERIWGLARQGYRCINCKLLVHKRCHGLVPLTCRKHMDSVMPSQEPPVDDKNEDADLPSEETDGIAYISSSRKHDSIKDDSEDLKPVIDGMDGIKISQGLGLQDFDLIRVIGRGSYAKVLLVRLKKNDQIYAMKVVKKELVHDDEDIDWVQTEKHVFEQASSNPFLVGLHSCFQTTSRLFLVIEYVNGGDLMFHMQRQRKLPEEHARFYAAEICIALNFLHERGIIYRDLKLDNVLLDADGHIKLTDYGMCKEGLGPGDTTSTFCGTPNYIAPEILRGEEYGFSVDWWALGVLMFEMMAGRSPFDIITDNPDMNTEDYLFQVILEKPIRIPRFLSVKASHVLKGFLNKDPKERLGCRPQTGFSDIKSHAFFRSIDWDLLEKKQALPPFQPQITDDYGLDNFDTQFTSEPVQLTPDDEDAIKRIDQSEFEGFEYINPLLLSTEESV

[5] = target: T5, PGK (Homo sapiens, UniProt Q13976)
T5 construct: purchased Carna Biosciences
T5 sequence (Q13976 1-671): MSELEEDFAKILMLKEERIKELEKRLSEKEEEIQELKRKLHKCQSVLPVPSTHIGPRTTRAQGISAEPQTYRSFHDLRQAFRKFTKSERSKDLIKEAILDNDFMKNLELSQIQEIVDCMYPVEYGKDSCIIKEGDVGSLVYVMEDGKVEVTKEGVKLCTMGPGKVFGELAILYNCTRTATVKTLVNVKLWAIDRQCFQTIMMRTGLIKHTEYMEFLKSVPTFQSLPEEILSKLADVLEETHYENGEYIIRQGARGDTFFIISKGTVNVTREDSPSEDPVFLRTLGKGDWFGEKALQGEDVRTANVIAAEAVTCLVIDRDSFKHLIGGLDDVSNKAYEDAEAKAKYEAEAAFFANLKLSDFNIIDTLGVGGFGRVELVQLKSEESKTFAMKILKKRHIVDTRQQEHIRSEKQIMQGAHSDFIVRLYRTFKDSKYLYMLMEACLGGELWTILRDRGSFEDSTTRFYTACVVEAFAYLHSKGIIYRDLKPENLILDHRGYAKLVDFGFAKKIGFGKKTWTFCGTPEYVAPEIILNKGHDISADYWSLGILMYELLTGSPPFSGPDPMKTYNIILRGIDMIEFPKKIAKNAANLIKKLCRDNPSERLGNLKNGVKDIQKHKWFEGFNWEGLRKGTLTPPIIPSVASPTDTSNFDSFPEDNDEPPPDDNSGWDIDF

[6] = target: T6, PEK (Homo sapiens, UniProt Q9NZJ5)
T6 construct: purchased Carna Biosciences
T6 sequence (Q9NZJ5 30-1116): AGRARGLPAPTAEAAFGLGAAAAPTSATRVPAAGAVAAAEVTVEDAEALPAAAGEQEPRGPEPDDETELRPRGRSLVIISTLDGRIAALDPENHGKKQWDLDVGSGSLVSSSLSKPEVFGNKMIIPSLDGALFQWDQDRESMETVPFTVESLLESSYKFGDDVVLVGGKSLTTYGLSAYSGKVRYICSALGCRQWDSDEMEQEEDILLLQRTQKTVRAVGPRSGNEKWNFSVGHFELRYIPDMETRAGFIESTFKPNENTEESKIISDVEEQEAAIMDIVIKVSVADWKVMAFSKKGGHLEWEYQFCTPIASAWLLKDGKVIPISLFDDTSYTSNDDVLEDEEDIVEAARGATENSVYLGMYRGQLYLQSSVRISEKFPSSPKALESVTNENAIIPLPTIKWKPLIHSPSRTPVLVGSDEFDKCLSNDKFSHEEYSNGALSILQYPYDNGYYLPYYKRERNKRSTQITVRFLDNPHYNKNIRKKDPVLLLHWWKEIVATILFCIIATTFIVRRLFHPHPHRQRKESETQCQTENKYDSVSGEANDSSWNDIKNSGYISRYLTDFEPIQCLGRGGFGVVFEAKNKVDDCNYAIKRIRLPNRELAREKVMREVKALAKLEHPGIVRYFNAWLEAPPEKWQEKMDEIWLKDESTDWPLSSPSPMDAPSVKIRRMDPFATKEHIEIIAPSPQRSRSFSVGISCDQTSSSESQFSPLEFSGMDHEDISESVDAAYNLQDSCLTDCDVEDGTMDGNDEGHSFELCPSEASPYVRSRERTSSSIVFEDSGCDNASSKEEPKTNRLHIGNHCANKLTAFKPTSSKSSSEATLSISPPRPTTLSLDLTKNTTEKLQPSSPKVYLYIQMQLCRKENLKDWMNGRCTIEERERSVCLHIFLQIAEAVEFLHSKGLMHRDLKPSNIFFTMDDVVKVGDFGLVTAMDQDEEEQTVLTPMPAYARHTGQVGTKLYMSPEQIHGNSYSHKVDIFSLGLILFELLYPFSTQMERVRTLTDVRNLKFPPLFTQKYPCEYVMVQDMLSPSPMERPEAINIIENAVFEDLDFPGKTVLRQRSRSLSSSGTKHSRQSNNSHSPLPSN

T2 sequence (Q9HCP0 whole entry): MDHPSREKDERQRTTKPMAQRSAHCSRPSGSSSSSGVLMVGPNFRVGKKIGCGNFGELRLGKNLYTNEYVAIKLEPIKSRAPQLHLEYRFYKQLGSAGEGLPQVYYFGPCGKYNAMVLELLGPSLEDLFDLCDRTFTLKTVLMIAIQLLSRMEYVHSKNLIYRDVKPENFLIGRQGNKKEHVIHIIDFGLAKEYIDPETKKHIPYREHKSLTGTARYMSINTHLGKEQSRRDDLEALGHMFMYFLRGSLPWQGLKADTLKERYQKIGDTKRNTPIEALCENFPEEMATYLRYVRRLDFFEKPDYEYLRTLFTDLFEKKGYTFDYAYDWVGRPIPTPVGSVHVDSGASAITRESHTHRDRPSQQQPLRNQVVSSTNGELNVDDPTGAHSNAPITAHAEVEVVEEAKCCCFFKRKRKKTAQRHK
T1 sequence (Q9UM73 19-1620): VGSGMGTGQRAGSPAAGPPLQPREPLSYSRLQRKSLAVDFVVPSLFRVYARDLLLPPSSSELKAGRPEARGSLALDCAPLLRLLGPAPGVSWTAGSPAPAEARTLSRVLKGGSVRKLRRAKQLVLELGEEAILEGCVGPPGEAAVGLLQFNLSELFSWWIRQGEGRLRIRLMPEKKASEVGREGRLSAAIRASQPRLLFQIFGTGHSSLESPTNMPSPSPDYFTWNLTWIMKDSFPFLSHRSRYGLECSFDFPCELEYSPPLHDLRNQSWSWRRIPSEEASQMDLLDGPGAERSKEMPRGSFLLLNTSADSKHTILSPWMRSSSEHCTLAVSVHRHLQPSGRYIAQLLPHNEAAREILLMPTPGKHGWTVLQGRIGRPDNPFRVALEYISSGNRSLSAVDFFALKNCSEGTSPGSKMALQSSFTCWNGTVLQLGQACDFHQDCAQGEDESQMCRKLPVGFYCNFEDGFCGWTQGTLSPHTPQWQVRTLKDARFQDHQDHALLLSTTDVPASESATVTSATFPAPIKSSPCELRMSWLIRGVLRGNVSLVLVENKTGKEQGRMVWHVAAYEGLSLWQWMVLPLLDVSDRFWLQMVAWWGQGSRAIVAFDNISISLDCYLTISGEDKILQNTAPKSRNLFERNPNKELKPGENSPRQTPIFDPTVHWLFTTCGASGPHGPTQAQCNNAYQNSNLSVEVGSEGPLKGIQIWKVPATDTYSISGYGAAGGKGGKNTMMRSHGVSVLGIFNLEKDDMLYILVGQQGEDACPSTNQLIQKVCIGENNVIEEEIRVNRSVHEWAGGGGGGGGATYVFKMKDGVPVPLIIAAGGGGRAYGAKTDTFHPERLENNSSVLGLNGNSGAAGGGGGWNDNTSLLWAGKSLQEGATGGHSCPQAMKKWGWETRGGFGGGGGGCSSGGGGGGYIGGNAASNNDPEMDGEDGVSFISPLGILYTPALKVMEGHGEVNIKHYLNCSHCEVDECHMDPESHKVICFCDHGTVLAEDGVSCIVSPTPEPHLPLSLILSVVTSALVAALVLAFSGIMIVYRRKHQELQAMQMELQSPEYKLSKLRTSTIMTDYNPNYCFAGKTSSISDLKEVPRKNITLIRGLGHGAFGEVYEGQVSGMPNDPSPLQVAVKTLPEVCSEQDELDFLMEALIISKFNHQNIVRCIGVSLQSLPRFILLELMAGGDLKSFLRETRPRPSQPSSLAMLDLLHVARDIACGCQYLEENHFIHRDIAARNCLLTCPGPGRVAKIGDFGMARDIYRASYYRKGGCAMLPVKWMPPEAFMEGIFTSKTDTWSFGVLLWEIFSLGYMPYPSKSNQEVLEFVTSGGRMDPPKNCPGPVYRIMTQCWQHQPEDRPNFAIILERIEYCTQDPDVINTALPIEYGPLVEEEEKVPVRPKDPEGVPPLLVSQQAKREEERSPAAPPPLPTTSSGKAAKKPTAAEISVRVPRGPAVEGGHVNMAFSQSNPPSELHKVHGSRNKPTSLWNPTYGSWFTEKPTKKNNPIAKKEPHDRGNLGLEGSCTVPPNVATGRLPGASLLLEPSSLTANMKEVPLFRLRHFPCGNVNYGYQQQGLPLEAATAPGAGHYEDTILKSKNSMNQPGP

| SMILES | Percentage inhibition of kinase enzyme activity [1] [%] | Percentage inhibition of kinase enzyme activity [2] [%] | Percentage inhibition of kinase enzyme activity [3] [%] | Percentage inhibition of kinase enzyme activity [4] [%] | Percentage inhibition of kinase enzyme activity [5] [%] | Percentage inhibition of kinase enzyme activity [6] [%] |
| --- | --- | --- | --- | --- | --- | --- |
| CC#CC(=O)N1CCC[C@H]1c1nc(-c2ccc(C(=O)Nc3ccccn3)cc2)c2c(N)nccn12 [acalabrutinib] | 5.27 | 0.33 | 0.69 | -5.44 | -3.70 | 8.39 |
| C=CC(=O)N1CCC[C@@H](n2nc(-c3ccc(Oc4ccccc4)cc3)c3c(N)ncnc32)C1 [ibrutinib] | 5.45 | 3.68 | 3.01 | 10.28 | 1.89 | 7.47 |
| O=C(c1ccc(Oc2ccccc2)cc1Cl)c1c[nH]c2ncnc(N[C@@H]3CC[C@@H](CO)OC3)c12 [nemtabrutinib] | 50.65 | 0.57 | 1.38 | -0.78 | -2.11 | 49.66 |
| COc1ccc(F)cc1C(=O)NCc1ccc(-c2nn([C@@H](C)C(F)(F)F)c(N)c2C(N)=O)cc1 [pirtobrutinib] | 6.67 | 5.92 | -2.34 | -3.38 | 0.94 | -9.35 |
